For one test, the system named is SVEC4-10 cells. Put plainly: Tubule formation assay on GF-reduced Matrigel, SVEC4-10 cells. The test is classed as cell-based, Murine. Particulars: FIG. 4, 6 h. As to the method: Adult human dermal microvascular endothelial cells (HuDMECs) were obtained commercially (TCS Biologicals, Buckinghamshire, United Kingdom) and cultured in microvascular endothelial cell growth medium (EGM). This medium contains heparin (10 ng/ml), hydrocortisone, human epidermal growth factor (10 ng/ml), human fibroblast growth factor (10 ng/ml) (such endothelial growth factors are necessary for routine passaging of HuDMECs in culture) and dibutyryl cyclic AMP. This was supplemented with 5% heat-inactivated FCS, 50 μg/ml gentamicin and 50 ng/ml amphotericin B (TCS Biologicals, United Kingdom). Murine endothelial cells (SVEC 4-10) were obtained from the ATCC and cultured in DMEM+10% FCS. Cells were grown at 37° C. in a 100% humidified incubator with a gas phase of 5% CO2 and routinely screened for Mycoplasma. Prior to their use in the assays indicated below, HuDMECs were grown to 80% confluency, incubated in DMEM+1% FCS for 2 h, then harvested with 0.05% trypsin solution, washed twice and resuspended to the cell density required for each assay (see below).
24 well plates were coated with 30 μl/well of growth factor-reduced (GF-reduced) Matrigel (Becton Dickinson Labware, Bedford, Mass.). […] Tubule formation was assessed by counting the number of tubule branches and the total area covered by tubules in each field of view using image analysis software supplied by Scion Image.

The test system of a further test is CT26 tumours. Put plainly: In vivo efficacy on growth of subcutaneous CT26 tumours. Set-up: species or system Balb/c mice. As to conditions: daily ip α1-24, p<0.001. The method, then:
Experiments were performed on six-week-old Balb/C mice weighing 15 g, obtained from Sheffield Field Laboratories. All experiments were approved by the Home Office Project Licence Number PPL50/1414.
The CT26 cell line was maintained by in vitro passage in Dulbecco's Minimal Eagles Medium containing 10% foetal calf serum, and 1% penicillin and streptomycin and maintained at 37° C. in humidified atmosphere of 5% CO2 in air. The cell line was routinely checked to ensure freedom from mycoplasma (Mycoplasma rapid detection system, Gena-Probe Incorporated, U.S.A.).
Animals were anaesthetised with an intraperitoneal injection of diazepam (0.5 mg/ml, Dumex Ltd.) and hypnorm (fentanyl citrate 0.0315 mg/ml and fluanisone 1 mg/ml, Janssen Pharmaceutical Ltd.) in the ratio of 1:1 at a volume of 0.1 ml/200 g body weight, with supplementation as required to maintain adequate anaesthesia. […] Tumour growth and animal weights were monitored daily.
Tumour growth was measured daily and when the majority of animals in the cohort had tumour volumes of >100 mm^3 but <350 mm^3 animals were divided into experimental and control groups. […]
Tumour volumes were assessed by calliper measurements of the perpendicular diameters and volumes estimated using the equation: […]
where a is the smaller and b the larger diameter Animals were weighed on a daily basis and the general well being monitored.

For “ADSGEGDFLAEGGGVRGPRVVERH (ADSGEGDFLAEGGGVRGPRVVERH) [α1-24, 24 amino acid peptide from the amino terminus of the fibrinogen α chain]”, the “tubule formation (area covered by tubules)” value in the test on SVEC4-10 cells (absence of growth factors) and in the test with SVEC4-10 cells (presence of growth factors (VEGF 10 ng/ml or bFGF 10 ng/ml)) was “significantly (p<0.03) reduced tubule formation” throughout. Besides, the final tumour volume in the test with CT26 tumours (Example 1, day 14, starting volume 235±30, vehicle control final 2245±371) was found to be 1341±145 mm^3; in the test on CT26 tumours (Example 2, day 12, starting volume 338±39, vehicle control final 3072±255) it was 2029±504 mm^3.

For the origin of these results see patent US20040039157A1, “Anti-angiogenic peptides” (priority 2000, published 2004).
